# In patent US20260308173A1, “OXAZOLOPYRIDIN-7(4H)-ONE WRN INHIBITORS” (NIMBUS WADJET, INC., priority 2023, published 2026):
# Tests used:
# [1] = molecular target: T1, p21 (Homo sapiens); test: Effect on p21 induction in HCT116 cells; type: cell-based; conditions: HCT116 colon carcinoma cells, 24 h, p21/GAPDH ratio, percent activation vs internal reference WRN inhibitor; read-out: P21_EC50
# T1 construct: p21 in-cell western after 24 h, GAPDH normalised
# Description: Example 3: Method for Determining Effect on p21 Induction in Cells
# The colon carcinoma cell line HCT116 was obtained from ATCC and cultured in growth medium consisting of Mccoy's 5A Medium (Gibco 16600108) supplemented with 10% FBS (Transgene FS201-02) and 100 units/mL penicillin-streptomycin (Gibco 15140122) and maintained at 37° C. under 5% CO2. On the day of seeding, 2,000 cells in 30 μL of culture media were plated per well to Poly-D-Lysine 384 Well Black Clear Plates (Biocoat 356663) and incubated overnight at 37° C. under 5% CO2. The following day, compounds were serially diluted in DMSO for a total of 11 test concentrations. The typical starting concentration of cpds was 10 μM with 2-fold dilutions. Next, 150 nL of diluted compound was added in duplicate to the assay plate, using an Echo 655 (Labcyte). The plate was centrifuged at 500 RPM for 1 min and then incubated at 37° C. under 5% CO2 for 24 h. After 24 h, medium was removed, and cells were fixed by adding 40 μL of 4% paraformaldehyde solution to each well and incubated for 20 min at room temperature. The plate was then washed 4 times with 100 μL per well of wash buffer (PBS with 0.1% Tween-20) using a microplate washer. Next, 30 μL of ice-cold methanol was added to each well and the plate was incubated at −20° C. for 10 min. The plate was washed 4 times with 100 μL per well of wash buffer by a microplate washer, then 30 μL per well of blocking buffer ((Intercept PBS blocking buffer (LI-COR 927-70001) with 0.05% Tween-20)) was added and the plate was incubated at room temperature with shaking for 2h. Next, to each test well, 20 μL of primary antibody solution ((p21 Waf1/CIP (12D1) Rabbit mAb (Cell Signaling Technologies 2947) diluted 1:1000 and GAPDH (D4C6R) Mouse mAb (Cell Signaling Technologies 97166) diluted 1:2000 in blocking buffer)) was added and the plate was placed at 4° C., overnight. The following day, the plate was washed 5 times with 100 μL per well of wash buffer using a microplate washer for 5 min. 20 μL per well of secondary antibody ((IRDye 680CW Goat anti-Mouse IgG (H+L) (LI-COR 926-68070) diluted 1:2000 in Blocking Buffer and IRDye 800CW Goat anti-Rabbit IgG (H+L) (LI-COR 926-32211) diluted 1:2000 in Blocking Buffer)) was then added and the plate was stored for 2 h in the dark at room temperature with shaking. The plate was then washed 4 times with 100 μL per well of wash buffer again using a microplate washer. Finally, the p21 signal and the GAPDH signal were quantified using a LI-COR Odyssey CLx Imager machine reading at 800 nm and 700 nm, respectively. Each plate contained DMSO control (low control) and an internal reference WRN inhibitor (high control) respectively. For quantitation, the 800 nm/700 nm ratio was calculated for each well to give fold p21 induction and then percent activation for each compound well was calculated as follows ((100×(ratio cpd well−ratio low control)/(ratio high control−ratio low control)). EC50 values for each compound was generated after non-linear regression curve fitting using commercially available software.
# [2] = molecular target: T2, human Werner helicase (Homo sapiens, UniProt Q14191, L1074F); test: WRN (BV08) ADP-Glo Assay; type: biochemical; conditions: WRN-BV08 (517-1235 L1074F) 0.15 nM, 0.1 nM DNA duplex, ATP, 15 min preincubation, 60 min at 25° C, pH 7.5; read-out: ADP-Glo_hWRN_IC50
# T2 construct: Uniprot Q14191, amino acids 517-1235 with L1074F point mutation; TEV-cleavable 8xHis tag (C, cleaved yes); made in house; host or cells: Sf9 insect cells (baculovirus)
# Description: Example 2: WRN (BV08) ADP-Glo Assay Protocol
# Bovine skin gelatin (BSG), dimethyl sulfoxide (DMSO), Pluronic F-127 and tris(2-carboxyethyl)phosphine hydrochloride solution (TCEP) were purchased from Sigma-Aldrich (St. Louis, MO) at the highest level of purity possible. Bicine buffer solution was purchased from Alfa Aesar (Tewksbury, MA) and compound NSC-617145 was purchased from Tocris (Minneapolis, MN). DNA duplex was synthesized at BGI (Shenzhen, China) and was composed of strand 1 with the sequence 5′-[…]-3′ (SEQ ID NO.: 1) and strand 2 with the sequence 5′-[…]-3′ (SEQ ID NO.: 2). DNA strands were annealed by heating to 95° C. for 5 minutes followed by slow cooling to room temperature. Compounds in 100% DMSO (0.1 μl) were spotted into a 384-well white polystyrene Optiplate-384 (Perkin Elmer; Waltham, MA) assay plate using a LabCyte Echo 550 (Agilent; Santa Clara, CA). DMSO (0.1 μl) was added to columns 12, rows A-H and column 24, rows I-P for the maximum signal control. Compound NSC-617145 (0.1 μl) was added to columns 12, rows I-P and 24, rows A-H for the minimum signal control (100% inhibition). Compounds/DMSO were preincubated for 15 minutes at 25° C. with 5 μl 2×WRN (BV08), prepared as described below, in assay buffer containing 20 mM Bicine (pH=7.5), 1 mM MgCl2, 10 mM KCl, 0.1% Pluronic F-127, 0.005% BSG, 1 mM TCEP. The reaction was initiated by the addition of 5 μl 2× substrate mixture in assay buffer and incubated for 60 minutes at 25° C. The final concentrations of the assay components were 0.15 nM WRN, 5 µM ATP, and 0.1 nM DNA duplex. The final DMSO concentration was 1% and the reference compound concentration (NSC-617145) used for the minimal signal control was 20 μM. The reaction was stopped by the addition of the ADP-Glo Kit components (Promega; Madison, WI) as directed and the relative luminescence units (RLU) were read on an Envision 2104 (Perkin Elmer; Waltham, MA).
# Where RLU=relative luminescence units, sample=signal in sample well, and MIN and MAX are the respective minimum and maximum signal controls.
# Y=Bottom+(Top−Bottom)/(1+(IC50/X)^Hill Slope)
# Where top and bottom are normally allowed to float but may be fixed at 100 or 0 respectively in a 3-parameter fit. Y is the % inhibition and X is the compound concentration.
# Molecular Biology and virus production. The DNA encoding human Werner helicase (Uniprot Q14191, amino acids 517-1235 with L1074F point mutation) was generated with codon-optimization for E. coli expression and subcloned into the pFastBac vector with a TEV cleavable 8×His tag (WRN—BV08). The baculovirus from the expression plasmid WRN—BV08 was generated from transfection and amplification following the manufacturer's instructions.
# Sf9 cells grown in SF900II media were infected with 1:200 WRN—BV08 P2 virus and incubated for protein expression for 72 h at 27° C. The WRN protein was purified using the following protocol. The cell pellets were thawed and resuspended in buffer A (50 mM Tris, pH 7.5, 500 mM NaCl, 1 mM TCEP, 10% Glycerol) supplemented with 0.5% CHAPS, 1 mM [COMPOUND LEFT OUT], 1 μg/ml Leupeptin, 1 μg/ml Pepstatin, and the Pierce Universal Nuclease and cocktail tablet. Cleared lysates were loaded onto a Ni Sepharose™ excel column and washed with buffer A and bound protein was eluted with buffer A supplemented with 300 mM imidazole. The eluted protein was dialyzed against buffer A and digested by His-tagged TEV (1:5 ratio) overnight at 4° C. […]
# T2 sequence (Q14191 with tags, fused parts or gaps L1074F): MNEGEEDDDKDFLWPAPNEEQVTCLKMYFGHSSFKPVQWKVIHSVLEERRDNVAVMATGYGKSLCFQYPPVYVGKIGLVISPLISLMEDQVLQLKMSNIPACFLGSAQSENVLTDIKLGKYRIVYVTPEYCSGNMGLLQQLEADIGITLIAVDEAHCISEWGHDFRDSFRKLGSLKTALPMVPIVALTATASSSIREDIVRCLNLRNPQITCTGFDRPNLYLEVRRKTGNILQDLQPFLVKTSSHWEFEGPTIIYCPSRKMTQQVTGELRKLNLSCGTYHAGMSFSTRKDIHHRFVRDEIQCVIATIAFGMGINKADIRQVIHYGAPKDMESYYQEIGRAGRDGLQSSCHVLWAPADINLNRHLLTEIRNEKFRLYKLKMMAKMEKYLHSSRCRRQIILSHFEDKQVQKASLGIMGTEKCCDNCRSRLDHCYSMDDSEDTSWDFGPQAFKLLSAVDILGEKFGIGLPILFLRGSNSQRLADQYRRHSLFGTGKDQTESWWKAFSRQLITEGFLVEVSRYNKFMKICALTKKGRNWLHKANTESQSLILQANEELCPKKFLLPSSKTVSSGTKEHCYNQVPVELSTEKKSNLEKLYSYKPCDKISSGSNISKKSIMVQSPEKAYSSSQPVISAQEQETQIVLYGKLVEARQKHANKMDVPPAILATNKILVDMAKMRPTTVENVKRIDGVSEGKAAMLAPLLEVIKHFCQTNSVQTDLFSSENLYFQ
# T1 sequence (Q14191 whole entry): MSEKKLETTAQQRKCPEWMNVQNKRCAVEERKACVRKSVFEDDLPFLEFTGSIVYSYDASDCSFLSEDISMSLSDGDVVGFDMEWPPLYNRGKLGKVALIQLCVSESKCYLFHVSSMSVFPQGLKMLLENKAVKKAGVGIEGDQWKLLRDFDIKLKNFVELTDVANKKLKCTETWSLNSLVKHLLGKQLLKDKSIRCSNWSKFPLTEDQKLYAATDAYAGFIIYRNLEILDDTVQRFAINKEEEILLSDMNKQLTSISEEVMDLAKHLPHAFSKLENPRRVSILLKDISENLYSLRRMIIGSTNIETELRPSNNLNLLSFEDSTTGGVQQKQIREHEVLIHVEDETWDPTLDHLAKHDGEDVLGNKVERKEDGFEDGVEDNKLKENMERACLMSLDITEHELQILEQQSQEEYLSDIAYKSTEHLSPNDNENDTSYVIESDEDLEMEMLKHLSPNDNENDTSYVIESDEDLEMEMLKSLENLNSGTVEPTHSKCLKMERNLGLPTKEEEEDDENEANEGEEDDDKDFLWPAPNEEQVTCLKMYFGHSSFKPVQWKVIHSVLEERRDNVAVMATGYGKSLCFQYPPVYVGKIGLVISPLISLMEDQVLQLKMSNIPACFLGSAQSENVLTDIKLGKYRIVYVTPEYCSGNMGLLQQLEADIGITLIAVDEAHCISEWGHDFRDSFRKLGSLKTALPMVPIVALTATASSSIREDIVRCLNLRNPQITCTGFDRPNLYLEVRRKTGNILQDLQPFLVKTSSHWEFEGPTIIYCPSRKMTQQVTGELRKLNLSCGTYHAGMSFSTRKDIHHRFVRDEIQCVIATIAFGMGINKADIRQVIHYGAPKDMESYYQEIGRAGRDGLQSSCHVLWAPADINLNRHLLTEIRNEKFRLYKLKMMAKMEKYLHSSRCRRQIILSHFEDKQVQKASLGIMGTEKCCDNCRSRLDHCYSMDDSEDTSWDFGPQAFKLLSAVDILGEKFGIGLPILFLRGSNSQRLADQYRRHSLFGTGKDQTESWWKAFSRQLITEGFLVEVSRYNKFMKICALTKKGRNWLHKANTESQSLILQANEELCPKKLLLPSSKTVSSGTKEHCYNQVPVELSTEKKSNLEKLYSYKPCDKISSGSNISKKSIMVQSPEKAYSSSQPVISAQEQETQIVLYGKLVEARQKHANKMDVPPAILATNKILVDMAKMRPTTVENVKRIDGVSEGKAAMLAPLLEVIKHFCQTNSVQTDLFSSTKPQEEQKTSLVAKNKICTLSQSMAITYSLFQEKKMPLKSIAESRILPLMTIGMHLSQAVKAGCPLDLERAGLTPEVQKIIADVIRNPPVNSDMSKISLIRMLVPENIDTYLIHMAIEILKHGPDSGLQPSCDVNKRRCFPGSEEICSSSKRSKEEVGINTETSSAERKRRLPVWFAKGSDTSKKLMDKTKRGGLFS
Structure (SMILES),EC50 [1] [nM],IC50 [2] [nM]
CCc1c(N2CCN(C(=O)c3ncnc(C)c3O)CC2)c(=O)c2nc(-c3ccnc(OC)c3)oc2n1CC(=O)Nc1ccc(C(F)(F)F)cc1Cl [1-2],–,≤ 5
"CCc1c(N2CCN(C(=O)c3ncnc(C)c3O)CC2)c(=O)c2oc(-c3ccnc(OC)c3)nc2n1CC(=O)Nc1ccc(C(F)(F)F)cc1Cl [I-1, N-(2-chloro-4-(trifluoromethyl)phenyl)-2-(5-ethyl-6-(4-(5-hydroxy-6-methylpyrimidine-4-carbonyl)piperazin-1-y1)-2-(2-methoxypyridin-4-yl)-7-oxooxazolo[4,5-b]pyridin-4(7H)-yl)acetamide]",≤ 500,≤ 5
CCc1c(N2CCN(C(=O)c3ncnc(C)c3O)CC2)c(=O)c2oc(-c3ccnc(OC)c3)nc2n1CC(=O)NC12CC(C(F)(F)F)(C1)C2 [1-3],–,5 to 50
"CCc1c(N2CCN(C(=O)c3ncnc(C)c3O)CC2)c(=O)c2nc(-c3ccnc(OC)c3)oc2n1CC(=O)Nc1ccc(C(F)(F)F)cc1Cl [I-2, N-(2-chloro-4-(trifluoromethyl)phenyl)-2-(5-ethyl-6-(4-(5-hydroxy-6-methylpyrimidine-4-carbonyl)piperazin-1-yl)-2-(2-methoxypyridin-4-yl)-7-oxooxazolo[5,4-b]pyridin-4(7H)-yl)acetamide]",≤ 500,–

# The remaining lines, values ahead:
EC50 [1] [nM],IC50 [2] [nM],Structure (SMILES)
2000 to 5000,–,"CCc1c(N2CCN(C(=O)c3ncnc(C)c3O)CC2)c(=O)c2oc(-c3ccnc(OC)c3)nc2n1CC(=O)NC12CC(C(F)(F)F)(C1)C2 [I-3, 2-(5-ethyl-6-(4-(5-hydroxy-6-methylpyrimidine-4-carbonyl)piperazin-1-yl)-2-(2-methoxypyridin-4-yl)-7-oxooxazolo[4,5-b]pyridin-4(7H)-yl)-N-(3-(trifluoromethyl)bicyclo[1.1.1]pentan-1-yl)acetamide]"
≤ 500,≤ 5,"CCc1c(N2CCN(C(=O)c3c(O)ccc4ncoc34)CC2)c(=O)c2oc(-c3ccnc(OC)c3)nc2n1CC(=O)Nc1ccc(C(F)(F)F)cc1Cl [I-5, N-(2-chloro-4-(trifluoromethyl)phenyl)-2-(5-ethyl-6-(4-(6-hydroxybenzo[d]oxazole-7-carbonyl)piperazin-1-y1)-2-(2-methoxypyridin-4-yl)-7-oxooxazolo[4,5-b]pyridin-4(7H)-y1)acetamide]"
> 5000,5 to 50,"CCc1c(N2CCN(C(=O)c3ncnc(C)c3O)CC2)c(=O)c2nc(-c3ccnc(OC)c3)oc2n1CC(=O)NC12CC(C(F)(F)F)(C1)C2 [I-4, 2-(5-ethyl-6-(4-(5-hydroxy-6-methylpyrimidine-4-carbonyl)piperazin-1-yl)-2-(2-methoxypyridin-4-yl)-7-oxooxazolo[5,4-b]pyridin-4(7H)-y1)-N-(3-(trifluoromethyl)bicyclo[1.1.1]pentan-1-yl)acetamide]"
